Data as given in patent publication US20250069757A1, “METHOD OF PREDICTING ADAS-COG SCORE” (WisTa Laboratories Ltd., priority 2021, published 2025).

Columns and labels:
Alzheimer's disease [1] = details: cited from earlier work
Alzheimer's disease [2] = assay: phase III clinical trials (TRx-237-005 and TRx-237-015) for Alzheimer's disease; assay type: in vivo, patients; details: 8, 150, 200 or 250 mg/day; both trials
Source text: Data from a phase III clinical trials (TRx-237-005 and TRx-237-015) for Alzheimer's disease was obtained. These clinical trials involved 1162 patients. Before the trials began, each patient's baseline measurements were collected, which included the patient's sex, age, baseline ADAS-Cog and mini-mental state examination (MMSE) score.
Patients were subsequently categorised into those with ‘low’ and ‘high’ plasma levels using a threshold based on the lower limit of quantitation of the assay on Day 1. […] Additionally, each patient entered the trial either already using the standard care of therapy or not. This yielded D=4 possible combinations: “low-using”, “low-none”, “high-using” and “high-none”. The trial spanned 5 visits with 13 weeks in between each visit. At each visit t, every patient i's progressive ADAS-Cog score, Yti∈ ? , was measured and recorded.

[3] = group with 'high' plasma levels, threshold based on lower limit of quantitation of the assay on Day 1

## CN(C)c1ccc2c(c1)Sc1cc(N(C)C)ccc1N2.CS(=O)(=O)O.CS(=O)(=O)O [LMTM]
Alzheimer's disease [1]; 8 mg/day range
  concentration-response relationships for steady-state plasma levels: steep concentration-response relationships
Alzheimer's disease [1]; [3]
  differences in brain atrophy: highly significant differences
  differences in cognitive decline: highly significant differences
Alzheimer's disease [2]
  dose-response: lack of dose-response
